Source: ChEMBL document CHEMBL1275257, “Antimicrobial activity of CHIR-090, an inhibitor of lipopolysaccharide biosynthesis, against the Burkholderia cepacia complex” (2010)
Converted amounts (≈) assume the structure as drawn. The source made the active and inactive calls. The calls are words filed in the database; no cut-off is given here.

What was measured:
[1] = test system: Burkholderia multivorans; assay: Antimicrobial activity against genomovar type II Burkholderia multivorans CFA11 at 40 ug/disk by disk diffusion growth inhibition assay; format: functional; settings: read-out: DIZ
[2] = test system: Burkholderia stabilis; assay: Antimicrobial activity against genomovar type IV Burkholderia stabilis C7322 at 40 ug/disk by disk diffusion growth inhibition assay; format: functional; settings: read-out: DIZ
[3] = test system: Burkholderia multivorans; assay: Antimicrobial activity against genomovar type II Burkholderia multivorans C5393 at 40 ug/disk by disk diffusion growth inhibition assay; format: functional; settings: read-out: DIZ
[4] = test system: Burkholderia multivorans; assay: Antimicrobial activity against genomovar type II Burkholderia multivorans JTC; format: functional
[5] = test system: Burkholderia multivorans; assay: Antimicrobial activity against genomovar type II Burkholderia multivorans 2492-2 at 40 ug/disk by disk diffusion growth inhibition assay; format: functional; settings: read-out: DIZ
[6] = test system: Burkholderia anthina; assay: Antimicrobial activity against genomovar type VIII Burkholderia anthina C1765 at 40 ug/disk by disk diffusion growth inhibition assay; format: functional; settings: read-out: DIZ
[7] = test system: Burkholderia cenocepacia; assay: Antimicrobial activity against genomovar type III Burkholderia cenocepacia ATCC 17765 at 40 ug/disk by disk diffusion growth inhibition assay; format: functional, organism-based
[8] = test system: Burkholderia cenocepacia; assay: Antimicrobial activity against genomovar type III Burkholderia cenocepacia CEP511 at 40 ug/disk by disk diffusion growth inhibition assay; format: functional, organism-based
[9] = test system: Burkholderia multivorans; assay: Antimicrobial activity against genomovar type II Burkholderia multivorans CF-A1-1; format: functional
[10] = test system: Burkholderia pyrrocinia; assay: Antimicrobial activity against genomovar type IX Burkholderia pyrrocinia BC011 at 40 ug/disk by disk diffusion growth inhibition assay; format: functional; settings: read-out: DIZ
[11] = test system: Burkholderia stabilis; assay: Antimicrobial activity against genomovar type IV Burkholderia stabilis LMG 18888 at 40 ug/disk by disk diffusion growth inhibition assay; format: functional
[12] = test system: Burkholderia multivorans; assay: Antimicrobial activity against genomovar type II Burkholderia multivorans C1962; format: functional
[13] = test system: Burkholderia ambifaria; assay: Antimicrobial activity against genomovar type VII Burkholderia ambifaria CEP0996 at 40 ug/disk by disk diffusion growth inhibition assay; format: functional; settings: read-out: DIZ
[14] = test system: Burkholderia multivorans; assay: Antimicrobial activity against genomovar type II Burkholderia multivorans C1576; format: functional
[15] = test system: Burkholderia stabilis; assay: Antimicrobial activity against genomovar type IV Burkholderia stabilis LMG 14086 at 40 ug/disk by disk diffusion growth inhibition assay; format: functional
[16] = test system: Burkholderia anthina; assay: Antimicrobial activity against genomovar type VIII Burkholderia anthina W92 at 40 ug/disk by disk diffusion growth inhibition assay; format: functional
[17] = test system: Burkholderia vietnamiensis; assay: Antimicrobial activity against genomovar type V Burkholderia vietnamiensis LMG 10929 at 40 ug/disk by disk diffusion growth inhibition assay; format: functional; settings: read-out: DIZ
[18] = test system: Burkholderia cepacia; assay: Antimicrobial activity against genomovar type I Burkholderia cepacia ATCC 25416 at 40 ug/disk by disk diffusion growth inhibition assay; format: functional, organism-based
[19] = test system: Burkholderia cenocepacia; assay: Antimicrobial activity against genomovar type III Burkholderia cenocepacia BC7 at 40 ug/disk by disk diffusion growth inhibition assay; format: functional, organism-based
[20] = test system: Pseudomonas aeruginosa; assay: Antimicrobial activity against Pseudomonas aeruginosa ATCC 10145; format: functional
[21] = test system: Burkholderia anthina; assay: Antimicrobial activity against genomovar type VIII Burkholderia anthina AU1293 at 40 ug/disk by disk diffusion growth inhibition assay; format: functional; settings: read-out: DIZ
[22] = test system: Burkholderia ambifaria; assay: Antimicrobial activity against genomovar type VII Burkholderia ambifaria AMMD at 40 ug/disk by disk diffusion growth inhibition assay; format: functional; settings: read-out: DIZ
[23] = test system: Burkholderia dolosa; assay: Antimicrobial activity against genomovar type VI Burkholderia dolosa AU0645 at 40 ug/disk by disk diffusion growth inhibition assay; format: functional; settings: read-out: DIZ
[24] = test system: Escherichia coli; assay: Antimicrobial activity against Escherichia coli 25922; format: functional
[25] = test system: Burkholderia dolosa; assay: Antimicrobial activity against genomovar type VI Burkholderia dolosa E12 at 40 ug/disk by disk diffusion growth inhibition assay; format: functional; settings: read-out: DIZ
[26] = test system: Burkholderia pyrrocinia; assay: Antimicrobial activity against genomovar type IX Burkholderia pyrrocinia ATCC 15958 at 40 ug/disk by disk diffusion growth inhibition assay; format: functional; settings: read-out: DIZ
[27] = test system: Burkholderia dolosa; assay: Antimicrobial activity against genomovar type VI Burkholderia dolosa CEP021 at 40 ug/disk by disk diffusion growth inhibition assay; format: functional; settings: read-out: DIZ
[28] = test system: Burkholderia cenocepacia; assay: Antimicrobial activity against genomovar type III Burkholderia cenocepacia PC184 at 40 ug/disk by disk diffusion growth inhibition assay; format: functional; settings: read-out: DIZ
[29] = test system: Burkholderia cepacia; assay: Antimicrobial activity against genomovar type I Burkholderia cepacia ATCC 17759 at 40 ug/disk by disk diffusion growth inhibition assay; format: functional, organism-based
[30] = test system: Burkholderia multivorans; assay: Antimicrobial activity against genomovar type II Burkholderia multivorans C5393; format: functional
[31] = test system: Burkholderia ambifaria; assay: Antimicrobial activity against genomovar type VII Burkholderia ambifaria ATCC 53266 at 40 ug/disk by disk diffusion growth inhibition assay; format: functional; settings: read-out: DIZ
[32] = test system: Pseudomonas aeruginosa; assay: Antimicrobial activity against Pseudomonas aeruginosa ATCC 27853; format: functional
[33] = test system: Burkholderia multivorans; assay: Antimicrobial activity against genomovar type II Burkholderia multivorans C1962 at 40 ug/disk by disk diffusion growth inhibition assay; format: functional; settings: read-out: DIZ
[34] = test system: Burkholderia cenocepacia; assay: Antimicrobial activity against genomovar type III Burkholderia cenocepacia SAL1 at 40 ug/disk by disk diffusion growth inhibition assay; format: functional, organism-based
[35] = test system: Burkholderia multivorans; assay: Antimicrobial activity against genomovar type II Burkholderia multivorans JTC at 40 ug/disk by disk diffusion growth inhibition assay; format: functional; settings: read-out: DIZ
[36] = test system: Burkholderia multivorans; assay: Antimicrobial activity against genomovar type II Burkholderia multivorans 249-2; format: functional
[37] = test system: Burkholderia cepacia; assay: Antimicrobial activity against genomovar type I Burkholderia cepacia CEP509 at 40 ug/disk by disk diffusion growth inhibition assay; format: functional, organism-based
[38] = test system: Burkholderia pyrrocinia; assay: Antimicrobial activity against genomovar type IX Burkholderia pyrrocinia C1469 at 40 ug/disk by disk diffusion growth inhibition assay; format: functional
[39] = test system: Burkholderia multivorans; assay: Antimicrobial activity against genomovar type II Burkholderia multivorans ATCC 17616 at 40 ug/disk by disk diffusion growth inhibition assay; format: functional; settings: read-out: DIZ
[40] = test system: Burkholderia vietnamiensis; assay: Antimicrobial activity against genomovar type V Burkholderia vietnamiensis LMG 16232 at 40 ug/disk by disk diffusion growth inhibition assay; format: functional; settings: read-out: DIZ
[41] = test system: Burkholderia pyrrocinia; assay: Antimicrobial activity against genomovar type IX Burkholderia pyrrocinia ATCC 39277 at 40 ug/disk by disk diffusion growth inhibition assay; format: functional; settings: read-out: DIZ
[42] = test system: Burkholderia dolosa; assay: Antimicrobial activity against genomovar type VI Burkholderia dolosa STM1441 at 40 ug/disk by disk diffusion growth inhibition assay; format: functional; settings: read-out: DIZ
[43] = test system: Burkholderia cenocepacia; assay: Antimicrobial activity against genomovar type III Burkholderia cenocepacia J2315 at 40 ug/disk by disk diffusion growth inhibition assay; format: functional, organism-based
[44] = test system: Burkholderia anthina; assay: Antimicrobial activity against genomovar type VIII Burkholderia anthina J2552 at 40 ug/disk by disk diffusion growth inhibition assay; format: functional
[45] = test system: Burkholderia multivorans; assay: Antimicrobial activity against genomovar type II Burkholderia multivorans LMG 13010 at 40 ug/disk by disk diffusion growth inhibition assay; format: functional; settings: read-out: DIZ
[46] = test system: Burkholderia multivorans; assay: Antimicrobial activity against genomovar type II Burkholderia multivorans C1576 at 40 ug/disk by disk diffusion growth inhibition assay; format: functional; settings: read-out: DIZ
[47] = test system: Burkholderia vietnamiensis; assay: Antimicrobial activity against genomovar type V Burkholderia vietnamiensis FC441 at 40 ug/disk by disk diffusion growth inhibition assay; format: functional; settings: read-out: DIZ
[48] = test system: Burkholderia cenocepacia; assay: Antimicrobial activity against genomovar type III Burkholderia cenocepacia C5424 at 40 ug/disk by disk diffusion growth inhibition assay; format: functional; settings: read-out: DIZ
[49] = test system: Burkholderia cenocepacia; assay: Antimicrobial activity against genomovar type III Burkholderia cenocepacia K562 at 40 ug/disk by disk diffusion growth inhibition assay; format: functional, organism-based
[50] = test system: Burkholderia cenocepacia; assay: Antimicrobial activity against genomovar type III Burkholderia cenocepacia C6433 at 40 ug/disk by disk diffusion growth inhibition assay; format: functional, organism-based
[51] = test system: Burkholderia cenocepacia; assay: Antimicrobial activity against genomovar type III Burkholderia cenocepacia J415 at 40 ug/disk by disk diffusion growth inhibition assay; format: functional; settings: read-out: DIZ
[52] = test system: Burkholderia multivorans; assay: Antimicrobial activity against genomovar type II Burkholderia multivorans ATCC 17616; format: functional
[53] = test system: Burkholderia vietnamiensis; assay: Antimicrobial activity against genomovar type V Burkholderia vietnamiensis PC259 at 40 ug/disk by disk diffusion growth inhibition assay; format: functional; settings: read-out: DIZ
[54] = test system: Burkholderia stabilis; assay: Antimicrobial activity against genomovar type IV Burkholderia stabilis LMG 14294 at 40 ug/disk by disk diffusion growth inhibition assay; format: functional

## C[C@@H](O)[C@H](NC(=O)c1ccc(C#Cc2ccc(CN3CCOCC3)cc2)cc1)C(=O)NO
[1]
  zone of inhibition at 40 µg/disc: 22 mm
[2]
  zone of inhibition at 40 µg/disc: 14 mm
[3]
  zone of inhibition at 40 µg/disc: 20 mm
[4]
  MIC: 1.56 µg/mL (≈ 3.57 µM)
[5]
  zone of inhibition at 40 µg/disc: 26 mm
[6]
  zone of inhibition at 40 µg/disc: 13 mm
[7]
  diameter of the inhibition zone (DIZ): inactive
[8]
  diameter of the inhibition zone (DIZ): inactive
[9]
  MIC: 1.56 µg/mL (≈ 3.57 µM)
[10]
  zone of inhibition at 40 µg/disc: 23 mm
[11]
  diameter of the inhibition zone (DIZ): inactive
[12]
  MIC: 3.13 µg/mL (≈ 7.15 µM)
[13]
  zone of inhibition at 40 µg/disc: 22 mm
[14]
  MIC: 12.5 µg/mL (≈ 28.6 µM)
[15]
  diameter of the inhibition zone (DIZ): inactive
[16]
  diameter of the inhibition zone (DIZ): inactive
[17]
  zone of inhibition at 40 µg/disc: 23 mm
[18]
  diameter of the inhibition zone (DIZ): inactive
[19]
  diameter of the inhibition zone (DIZ): inactive
[20]
  MIC: 0.78 µg/mL (≈ 1.78 µM)
[21]
  zone of inhibition at 40 µg/disc: 10 mm
[22]
  zone of inhibition at 40 µg/disc: 23 mm
[23]
  zone of inhibition at 40 µg/disc: 18 mm
[24]
  MIC: 0.05 µg/mL (≈ 0.114 µM)
[25]
  zone of inhibition at 40 µg/disc: 23 mm
[26]
  zone of inhibition at 40 µg/disc: 20 mm
[27]
  zone of inhibition at 40 µg/disc: 24 mm
[28]
  zone of inhibition at 40 µg/disc: 18 mm
[29]
  diameter of the inhibition zone (DIZ): inactive
[30]
  MIC: 3.13 µg/mL (≈ 7.15 µM)
[31]
  zone of inhibition at 40 µg/disc: 24 mm
[32]
  MIC: 0.78 µg/mL (≈ 1.78 µM)
[33]
  zone of inhibition at 40 µg/disc: 24 mm
[34]
  diameter of the inhibition zone (DIZ): inactive
[35]
  zone of inhibition at 40 µg/disc: 23 mm
[36]
  MIC: 0.1 µg/mL (≈ 0.229 µM)
[37]
  diameter of the inhibition zone (DIZ): inactive
[38]
  diameter of the inhibition zone (DIZ): inactive
[39]
  zone of inhibition at 40 µg/disc: 17 mm
[40]
  zone of inhibition at 40 µg/disc: 23 mm
[41]
  zone of inhibition at 40 µg/disc: 22 mm
[42]
  zone of inhibition at 40 µg/disc: 21 mm
[43]
  diameter of the inhibition zone (DIZ): inactive
[44]
  diameter of the inhibition zone (DIZ): inactive
[45]
  zone of inhibition at 40 µg/disc: 14 mm
[46]
  zone of inhibition at 40 µg/disc: 15 mm
[47]
  zone of inhibition at 40 µg/disc: 9 mm
[48]
  zone of inhibition at 40 µg/disc: 19 mm
[49]
  diameter of the inhibition zone (DIZ): inactive
[50]
  diameter of the inhibition zone (DIZ): inactive
[51]
  zone of inhibition at 40 µg/disc: 21 mm
[52]
  MIC: 6.25 µg/mL (≈ 14.3 µM)
[53]
  zone of inhibition at 40 µg/disc: 26 mm
[54]
  diameter of the inhibition zone (DIZ): inactive

## POLYMYXIN B
[20]
  MIC: 3.13 µg/mL
[24]
  MIC: 0.78 µg/mL
[32]
  MIC: 3.13 µg/mL
